How the values were obtained:
[1] = test system: JM1; assay: Effective dose of compound that decreases antigen production in HIV-1 infected JM cells to 50% of control; format: functional; details: Homo sapiens, read-out: ED50 (the source's name)
[2] = Toxic dose of compound which causes 50% cytotoxicity towards HIV-1 uninfected JM cells; format: toxicity, cell-based, JM1; details: human, read-out: TD50 (the source's name)

| Structure (SMILES) | EC50 [1] | CC50 [2] |
| --- | --- | --- |
| COC(=O)[C@H](C)NP(=O)(OC[C@H]1O[C@@H](n2cc(C)c(=O)[nH]c2=O)C[C@@H]1N=[N+]=[N-])Oc1ccccc1 (stereo partly drawn) | 0.8 µM | 500 µM |
| COC(=O)C(C)NP(=O)(OCC1OC(n2cc(C)c(=O)[nH]c2=O)CC1N=[N+]=[N-])Oc1ccc(OC)cc1 (stereo not drawn) | 0.8 µM | 100 µM |
| COC(=O)CNP(=O)(OCC1OC(n2cc(C)c(=O)[nH]c2=O)CC1N=[N+]=[N-])Oc1ccccc1 (stereo not drawn) | 100 µM | 1000 µM |
| Cc1cn([C@H]2C[C@H](N=[N+]=[N-])[C@@H](CO)O2)c(=O)[nH]c1=O [ZIDOVUDINE] | 100 µM | > 1000 µM |

Second part, led by results:

| EC50 [1] | Structure (SMILES) | CC50 [2] |
| --- | --- | --- |
| 40 µM | COC(=O)C(C)NP(=O)(OCC1OC(n2cc(C)c(=O)[nH]c2=O)CC1N=[N+]=[N-])Oc1ccc([N+](=O)[O-])cc1 (stereo not drawn) | 300 µM |
| 8 µM | COC(=O)C(CC(C)C)NP(=O)(OCC1OC(n2cc(C)c(=O)[nH]c2=O)CC1N=[N+]=[N-])Oc1ccccc1 (stereo not drawn) | 80 µM |
| 0.4 µM | CCc1ccc(OP(=O)(NC(C)C(=O)OC)OCC2OC(n3cc(C)c(=O)[nH]c3=O)CC2N=[N+]=[N-])cc1 (stereo not drawn) | 40 µM |
| 0.32 µM | COC(=O)C(C)NP(=O)(OCC1OC(n2cc(C)c(=O)[nH]c2=O)CC1N=[N+]=[N-])Oc1ccc(F)cc1 (stereo not drawn) | > 200 µM |
| 1.6 µM | COC(=O)C(Cc1ccccc1)NP(=O)(OCC1OC(n2cc(C)c(=O)[nH]c2=O)CC1N=[N+]=[N-])Oc1ccccc1 (stereo not drawn) | 100 µM |

Source: ChEMBL document CHEMBL1151585, “Aryl phosphate derivates of AZT inhibit HIV replication in cells where the nucleoside is poorly active” (Bioorg Med Chem Lett, 1992)
